Measured values reported in article PMC4607679, “Intestinal Absorption of Ergostane and Lanostane Triterpenoids from Antrodia cinnamomea Using Caco-2 Cell Monolayer Model” (Natural Products and Bioprospecting, 2015).
Entries after “also recorded” stand apart in the source; their conditions may differ. Like-named read-outs stand apart in the source and are kept apart here.

Assays:
in vitro = details: human; for Papp A→B at 180 min, 25 µg/mL (extract) / Papp B→A at 180 min, 25 µg/mL (extract): Caco-2; for efflux ratio at 180 min, 25 µg/mL: Caco-2, Efflux ratio P BA/P AB
Caco-2 cell monolayer [1] = details: human
[2] = Solubility (stated in words); details: both in the extract and single forms (13 and 14)
Caco-2 cell monolayer [3] = assay: Bidirectional transport across the Caco-2 cell monolayer (LC/MS/MS); details: for decrease of PBA in extract compared to the single form: extract versus single compound; for P app P BA: BL to AP; for permeability through the Caco-2 cell layer: pure compounds; for permeability through the Caco-2 cell layer / Efflux ratio P BA/P AB: 10 µM; for Efflux ratio P BA/P AB: as single compounds
[4] = cited from earlier work
[5] = Bidirectional transport across the Caco-2 cell monolayer (LC/MS/MS); details: human; for efflux ratio at 180 min, 25 µg/mL / efflux ratio at 180 min, 10 µM: Caco-2, Efflux ratio P BA/P AB; for efflux ratio at 180 min, 25 µg/mL: in A. cinnamomea extract (25 µg/mL); for efflux ratio at 180 min, 10 µM: as single compounds
Caco-2 cultures = assay: MTS assay on Caco-2 cultures; type: cell-based, human; details: 10 µM
Method: The pure compounds 5, 6, 10, 13 and 14 were added into the Caco-2 cultures at a final concentration of 10 µM.

[6] = Leakage marker sodium fluorescein transport, AP to BL, Caco-2 monolayer integrity; type: in vitro ADME; details: human
Method: The integrity of cell monolayers was also assessed by the transport of the leakage marker sodium fluorescein. On day 21, the Caco-2 monolayers were rinsed twice with pre-warmed HBSS and were then incubated with the same solution at 37 °C for 30 min, on a shaker at 50 rpm. The fluorescein was pre-dissolved in 1 mM NaOH/H2O (1:10, v/v), and then diluted to 1 mM with an appropriate volume of HBSS. The sodium fluorescein and blank HBSS were added to the AP (0.5 mL) and BL side (1.5 mL), respectively. At 30, 60, 90, and 120 min, each 0.3 mL of the solution from BL side was collected, and replaced with an equal volume of HBSS. The sodium fluorescein intensity was determined with a Hitachi F-4500 fluorometer (excitation wavelength 490 nm, emission 525 nm).

[7] = in A. cinnamomea extract (25 µg/mL)

## CC(C)=CCC[C@@H](C(=O)O)[C@H]1C[C@H](O)[C@@]2(C)C3=CC[C@H]4C(C)(C)[C@H](O)CC[C@]4(C)C3=CC[C@]12C [compound 7, 3β,15α-dihydroxylanosta-7,9(11),24-triene-21-oic acid]
In vitro
  Papp A→B at 180 min, 25 µg/mL (extract): 37.4 ± 4.3 ×10⁻⁶ cm/s
  Papp B→A at 180 min, 25 µg/mL (extract): 35.7 ± 3.8 ×10⁻⁶ cm/s
  efflux ratio at 180 min, 25 µg/mL: 0.96
Caco-2 cell monolayer [1]; Caco-2, 180 min, 25 µg/mL
  transport rate: 38.8%

## C=C(CC[C@@H](C(=O)O)[C@H]1C[C@H](O)[C@@]2(C)C3=CC[C@H]4C(C)(C)[C@@H](O)CC[C@]4(C)C3=CC[C@]12C)C(C)C [compound 8, dehydrosulphurenic acid]
[2]
  solubility: very low
Caco-2 cell monolayer [3]; both in the extract and single forms (13 and 14)
  permeability: very low
Caco-2 cell monolayer [3]; in A. cinnamomea extract
  permeability: poor permeability

## C=C(CC[C@@H](C)[C@H]1CC[C@H]2C3=C(C(=O)C[C@]12C)[C@@]1(C)CC[C@@H](O)[C@](C)(O)[C@@H]1C[C@@H]3O)[C@H](C)C(=O)O [compound 1, 25S-antcin K]
In vitro
  Papp A→B at 180 min, 25 µg/mL (extract): 78 ± 8.6 ×10⁻⁶ cm/s
  Papp B→A at 180 min, 25 µg/mL (extract): 53.2 ± 3.1 ×10⁻⁶ cm/s
  efflux ratio at 180 min, 25 µg/mL: 0.68
[4]; rat, in vivo
  plasma exposure: major plasma-exposed components

## CC(C)NCC(O)COc1cccc2ccccc12 (centres unmarked) [propranolol, reference compound]
Caco-2 cell monolayer [3]; marker compound, AP to BL (Table S5)
  PAB value of marker compound: 3.81 ± 0.34 × 10^−5 cm/s
[5]; Caco-2
  Papp A→B at 30 min: 35.1 ± 10.6 ×10⁻⁶ cm/s
  Papp A→B at 60 min: 37.6 ± 4.5 ×10⁻⁶ cm/s
  Papp A→B at 90 min: 34.3 ± 4.6 ×10⁻⁶ cm/s
  Papp A→B at 120 min: 38.1 ± 3.4 ×10⁻⁶ cm/s

## C=C(CC[C@@H](C)[C@H]1CC[C@H]2C3=C(C(=O)C[C@]12C)[C@@]1(C)CCC(=O)[C@@H](C)[C@@H]1C[C@@H]3O)[C@@H](C)C(=O)O [compound 4, 25R-antcin C]
[4]; rats, after A. cinnamomea
  plasma exposure: much lower plasma concentrations
[5]; Caco-2
  Papp A→B at 180 min, 25 µg/mL (extract): 74.1 ± 19 ×10⁻⁶ cm/s
  Papp B→A at 180 min, 25 µg/mL (extract): 51.3 ± 2.7 ×10⁻⁶ cm/s
[5]
  efflux ratio at 180 min, 25 µg/mL: 0.69

## C=C(CC[C@@H](C)[C@H]1CC[C@H]2C3=C(C(=O)C[C@]12C)[C@@]1(C)CC[C@@H](O)[C@](C)(O)[C@@H]1C[C@@H]3O)[C@@H](C)C(=O)O [compound 2, 25R-antcin K]
In vitro
  Papp A→B at 180 min, 25 µg/mL (extract): 57.4 ± 2.7 ×10⁻⁶ cm/s
  Papp B→A at 180 min, 25 µg/mL (extract): 44.8 ± 3 ×10⁻⁶ cm/s
  efflux ratio at 180 min, 25 µg/mL: 0.78
[4]; rat, in vivo
  plasma exposure: major plasma-exposed components
Caco-2 cell monolayer [1]; Caco-2, 25 µg/mL
  transport rate: 112%

## C=C(CC[C@@H](C)[C@H]1CC[C@H]2C3=C(C(=O)[C@H](O)[C@]12C)[C@@]1(C)CC[C@@H](O)[C@@H](C)[C@@H]1CC3=O)[C@H](C)C(=O)O [compound 6, 25S-antcin H]
Caco-2 cultures
  toxicity to the cells (MTS assay): non-toxic
[4]; rats, after A. cinnamomea
  plasma exposure: major plasma-exposed components
Caco-2 cell monolayer [3]
  decrease of PBA in extract compared to the single form: 50–60%
  permeability through the Caco-2 cell layer: could readily pass through; also recorded: high permeability
Caco-2 cell monolayer [3]; in A. cinnamomea extract (25 µg/mL), AP to BL
  P app P AB: 3.18 ± 0.34 ×10^−5 cm/s
Caco-2 cell monolayer [3]; [7]
  P app P BA: 3.0–3.8 ×10^−5 cm/s
[5]; Caco-2
  Papp A→B at 180 min, 10 µM: 31.4 ± 5.6 ×10⁻⁶ cm/s
  Papp B→A at 180 min, 10 µM: 92 ± 13.4 ×10⁻⁶ cm/s
  Papp B→A at 180 min, 25 µg/mL (extract): 30.5 ± 3.8 ×10⁻⁶ cm/s
[5]
  efflux ratio at 180 min, 10 µM: > 2
  efflux ratio at 180 min, 25 µg/mL: 0.99

## C=C(CC[C@@H](C)[C@H]1CC[C@H]2C3=C(C(=O)[C@H](O)[C@]12C)[C@@]1(C)CC[C@@H](O)[C@@H](C)[C@@H]1CC3=O)[C@@H](C)C(=O)O [compound 5, 25R-antcin H]
Caco-2 cultures
  toxicity to the cells (MTS assay): non-toxic
[4]; rats, after A. cinnamomea
  plasma exposure: major plasma-exposed components
Caco-2 cell monolayer [3]
  Efflux ratio P BA/P AB: 2.26
  decrease of PBA in extract compared to the single form: 50–60%
  permeability through the Caco-2 cell layer: could readily pass through; also recorded: high permeability
Caco-2 cell monolayer [3]; [7]
  P app P BA: 3.0–3.8 ×10^−5 cm/s
[5]; Caco-2
  Papp A→B at 180 min, 10 µM: 37.2 ± 4.4 ×10⁻⁶ cm/s
  Papp A→B at 180 min, 25 µg/mL (extract): 39.5 ± 6.4 ×10⁻⁶ cm/s
  Papp B→A at 180 min, 10 µM: 84.1 ± 13.5 ×10⁻⁶ cm/s
  Papp B→A at 180 min, 25 µg/mL (extract): 34.7 ± 3.6 ×10⁻⁶ cm/s
[5]
  efflux ratio at 180 min, 10 µM: > 2
  efflux ratio at 180 min, 25 µg/mL: 0.88

## C=C(CC[C@@H](C)[C@H]1CC[C@H]2C3=C(C(=O)C[C@]12C)[C@@]1(C)CCC(=O)[C@@H](C)[C@@H]1CC3)C(C)C(=O)O (mixture of isomers) [compound 11, (R/S)-antcin A]
In vitro
  Papp A→B at 180 min, 25 µg/mL (extract): 79.2 ± 4.2 ×10⁻⁶ cm/s
  Papp B→A at 180 min, 25 µg/mL (extract): 47.9 ± 2.3 ×10⁻⁶ cm/s
  efflux ratio at 180 min, 25 µg/mL: 0.6

## O=C1OC2(c3ccc(O)cc3Oc3cc(O)ccc32)c2ccccc21 [sodium fluorescein]
[6]; 1 mM, day 21 monolayer, read-out: Papp value AP to BL side
  Papp A→B at 1 mM: < 1 ×10⁻⁶ cm/s
[6]; 30 min
  Papp A→B at 30 min, 1 mM: 0.798 ± 0.199 ×10⁻⁶ cm/s
[6]; 60 min
  Papp A→B at 60 min, 1 mM: 0.771 ± 0.144 ×10⁻⁶ cm/s
[6]; 90 min
  Papp A→B at 90 min, 1 mM: 0.765 ± 0.14 ×10⁻⁶ cm/s
[6]; 120 min
  Papp A→B at 120 min, 1 mM: 0.708 ± 0.298 ×10⁻⁶ cm/s

## C=C(CC[C@@H](C)[C@H]1CC[C@H]2C3=C(C(=O)C[C@]12C)[C@@]1(C)CCC(=O)[C@@H](C)[C@@H]1CC3=O)[C@H](C)C(=O)O [compound 9, 25S-antcin B]
[4]; rats, after A. cinnamomea
  plasma exposure: much lower plasma concentrations
[5]; Caco-2
  Papp A→B at 180 min, 25 µg/mL (extract): 26.5 ± 5.3 ×10⁻⁶ cm/s
  Papp B→A at 180 min, 25 µg/mL (extract): 27.6 ± 2.7 ×10⁻⁶ cm/s
[5]
  efflux ratio at 180 min, 25 µg/mL: 1.04

## C=C(CC[C@@H](C)[C@H]1CC[C@H]2C3=C(C(=O)C[C@]12C)[C@@]1(C)CCC(=O)[C@@H](C)[C@@H]1CC3=O)[C@@H](C)C(=O)O [compound 10, 25R-antcin B]
Caco-2 cultures
  toxicity to the cells (MTS assay): non-toxic
[4]; rats, after A. cinnamomea
  plasma exposure: much lower plasma concentrations
Caco-2 cell monolayer [3]
  Efflux ratio P BA/P AB: 2.07
  decrease of PBA in extract compared to the single form: 50–60%
  permeability through the Caco-2 cell layer: could readily pass through; also recorded: high permeability
Caco-2 cell monolayer [3]; [7]
  P app P BA: 3.0–3.8 ×10^−5 cm/s
Caco-2 cell monolayer [3]; single compound 10 µM, 120 min (Fig. S2)
  metabolites detected in the AP side: two hydrogenated metabolites
[5]; Caco-2
  Papp A→B at 180 min, 10 µM: 28.3 ± 4.3 ×10⁻⁶ cm/s
  Papp A→B at 180 min, 25 µg/mL (extract): 41.1 ± 9.2 ×10⁻⁶ cm/s
  Papp B→A at 180 min, 10 µM: 58.5 ± 5.8 ×10⁻⁶ cm/s
  Papp B→A at 180 min, 25 µg/mL (extract): 38.6 ± 3.2 ×10⁻⁶ cm/s
[5]
  efflux ratio at 180 min, 10 µM: > 2
  efflux ratio at 180 min, 25 µg/mL: 0.94

## C=C(CC[C@@H](C)[C@H]1CC[C@H]2C3=C(C(=O)C[C@]12C)[C@@]1(C)CCC(=O)[C@@H](C)[C@@H]1C[C@@H]3O)[C@H](C)C(=O)O [compound 3, 25S-antcin C]
[4]; rats, after A. cinnamomea
  plasma exposure: much lower plasma concentrations
[5]; Caco-2
  Papp A→B at 180 min, 25 µg/mL (extract): 68.2 ± 5.9 ×10⁻⁶ cm/s
  Papp B→A at 180 min, 25 µg/mL (extract): 49.9 ± 2.9 ×10⁻⁶ cm/s
[5]
  efflux ratio at 180 min, 25 µg/mL: 0.73
